{"source": "patent US5846720A", "about": "“Methods of determining chemicals that modulate expression of genes associated with cardiovascular disease” (Oncogene Science, Inc., priority 1996, dated 1998)", "molecules": {"B1": {"name": "CSF-1: colony-stimulating factor-1 (protein, UniProt P09603 33-554, looked up)", "Macrophage colony-stimulating …": "EEVSEYCSHMIGSGHLQSLQRLIDSQMETSCQITFEFVDQEQLKDPVCYLKKAFLLVQDIMEDTMRFRDNTPNAIAIVQLQELSLRLKSCFTKDYEEHDKACVRTFYETPLQLLEKVKNVFNETKNLLDKDWNIFSKNCNNSFAECSSQDVVTKPDCNCLYPKAIPSSDPASVSPHQPLAPSMAPVAGLTWEDSEGTEGSSLLPGEQPLHTVDPGSAKQRPPRSTCQSFEPPETPVVKDSTIGGSPQPRPSVGAFNPGMEDILDSAMGTNWVPEEASGEASEIPVPQGTELSPSRPGGGSMQTEPARPSNFLSASSPLPASAKGQQPADVTGTALPRVGPVRPTGQDWNHTPQKTDHPSALLRDPPEPGSPRISSLRPQGLSNPSTLSAQPQLSRSHSSGSVLPLGELEGRRSTRDRRSPAEPEGGPASEGAARPLPRFNSVPLTDTGHERQSEGSFSPQLQESVFHLLVPSVILVLLAVGGLLFYRWRRRSHQEPQRADSPLEQPEGSPLTQDDRQVELPV"}}, "key": {"[1]": {"details": "in vivo; cited from earlier work"}, "HMGCoA reductase": {"test_system": "HMGCoA reductase", "details": "animals, high doses; cited from earlier work"}, "[2]": {"details": "cited from earlier work; for decrease in serum cholesterol levels: compared with HMGCoA reductase inhibitors like lovastatin"}, "M-CSF promoter": {"test_system": "M-CSF promoter", "assay": "M-CSF (CSF-1) promoter/luciferase induction, M2071, M2085, M2086", "assay_type": "cell-based, human", "details": "2,000 units/ml, 16 hours, all three M-CSF clones", "method": "Human promyelocytic leukemia HL-60 cells are known to express CSF-1 (74). They were transfected with linearized pCSF1-102 (FIG. 21) and linearized PTKneo3 using electroporation as described above. Three neomycin resistant clones were generated: --M2071, M2085 and M2086. All three responded to a 16 hour incubation with 2000 units/ml interferon-gamma by a 20-fold increase of luciferase expression. M2086 was selected for use in the high throughput screen. The WI-38 human fibroblast cell line is also capable of producing CSF-1. Stable transfectants are also prepared from these for screening in a different cellular background. There is evidence for tissue-specific modulation of CSF-1 gene expression, and since the major source of the CSF-1 which stimulates the growth of macrophages at atherosclerotic plaques is unknown, screening with more than one cell line may be useful.\n(§1) Promoter induction experiments were also conducted with the GM-CSF reporter cell lines GM1073, GM1088 and GM1105, which were all shown to contain correctly inserted constructs (see above). […] Luciferase expression of clones GM1088 and GM1105 was induced by PMA 2.8 fold and 2 fold, respectively, while TNF-alpha induced both clones 2 fold. All three M-CSF clones responded to a 16-hour incubation with 2,000 units/ml Interferon-gamma by a 20-fold increase of luciferase expression from the M-CSF promoter."}, "G-CSF mRNA": {"test_system": "G-CSF mRNA", "assay": "Northern blot of endogenous G-CSF mRNA", "assay_type": "cell-based, human", "details": "U5637 cells, relative to DMSO", "method": "Total cellular RNA was isolated from cells following incubation with chemicals as described above and electrophoresed in a 1% Agarose Formaldehyde gel. The RNA was transferred to Duralon-UV nylon filters (Stratagene, La Jolla, Calif.) using the manufacturer's recommended protocol. The filters were prehybridized for 4 hours (prehybridizing solution=5× SSC, 50 mM sodium pyrophosphate, 10× Denhardt's solution, 10% dextran sulfate, 7% SDS and 250 μg/ml denatured ssDNA) and then hybridized in the same solution for 16 hours at 65° C. in the presence of specific probes. The G-CSF probe was a 0.6 kb AflII to Xhol fragment which contained most of exon 5 of the human G-CSF gene. The β-actin (Oncor, Gaithersburg, Md.) probe was used as a control probe to normalize for the total amount of RNA. The probes were labeled with alpha-32P dCTP using a random primed DNA labeling kit (Amersham, Arlington, Ill.). Following hybridization, filters were washed three times at room temperature with 1× SSC, 0.13% SDS and three times at 65° C. with 0.2× SSC, 0.1% SDS. Filters were first probed with the G-CSF specific probe and then reprobed with β-actin-probe. Exposure to x-ray film was performed overnight. Bands were excised and counted in a liquid scintillation counter (LKB, Gaithersburg, Md.), and counts obtained with the G-CSF specific probe were normalized relative to the counts obtained with the β-Actin specific probe.\nAlso shown are the effects of the solvent, DMSO, used to dissolve the chemicals and a proteinaceous positive regulator, interferon-gamma."}, "G-CSF promoter [3]": {"test_system": "G-CSF promoter", "assay": "G-CSF promoter/luciferase induction by known inducers, clone G1002", "assay_type": "cell-based, human", "method": "U5637 bladder carcinoma cells were transfected with pGVU150 (FIG. 21) or pGVU140 plus pTKNeo3 either by electroporation using a BRL (Gaithersburg, Md.) Cellporator electroporation device or by lipofection using BRL lipofectin and following the manufacturer's protocol. Clones were analyzed for luciferase expression and those testing positive expanded further and frozen in liquid nitrogen. Further analysis of 6 clones (G1002, G2005, G2071, G2085, G3014, G3031) included Southern blotting, reaction to known inducers, satisfactory attachment to microtiter plates and acceptable standard deviation in multiple luciferase expression assays. Clone G1002 was selected for use in the high throughput screen.\nCell clones with correctly integrated promoter/reporter constructs were analyzed for correct reaction to known transcriptional inducers. […] Both TNF-alpha and PMA induction levels of clone G1002 were influenced by the presence or absence of epidermal growth factor (EGF). […] The 9.3 fold induction by PMA in the absence of EGF was reduced to 5.6 fold by including EGF in the serum-free incubation mixture. Similar differences were observed, when EGF was substituted by 10% fetal calf serum."}, "GM-CSF promoter": {"test_system": "GM-CSF promoter", "assay": "GM-CSF promoter/luciferase induction by known inducers, GM1073, GM1088, GM1105", "assay_type": "cell-based, human", "method": "6 clones generated by electroporation of U5637 cells with pGMLL103 NEO3 (FIG. 26) were subjected to further analysis as described above for G-CSF: --GM1073 (10 μg; circular); GM1081, GM1088 and GM1090 (5 μg; linear); and GM1098 and GM1105 (10 μg; linear). Clone GM1073 was selected for use in the high throughput screen.\nas §1"}, "G-CSF promoter [4]": {"test_system": "G-CSF promoter", "assay": "G-CSF promoter/luciferase reporter assay (high-throughput screen I), G21 cells", "details": "G21, 7 hours, serum-free"}, "[5]": {"test_system": "5637 bladder carcinoma cells", "assay": "G-CSF secretion, two-antibody sandwich immunoassay", "assay_type": "cell-based, human", "details": "48 hours, serum-containing media", "method": "Supernatants from 5637 bladder carcinoma cells incubated with chemicals registering as positives in the G-CSF promoter/luciferase high throughput assay were assayed for secreted G-CSF protein using the two-antibody sandwich immunoassay (83). The G-CSF Assay kit manufactured by Oncogene Science, Inc. was used and the manufacturer's instructions were followed.\nThe levels of G-CSF in the cell supernatants were determined by a sandwich-antibody assay as described in above (FIG. 42)."}}, "data": [{"molecule": "CC[C@H](C)C(=O)O[C@H]1C[C@@H](C)C=C2C=C[C@H](C)[C@H](CC[C@@H]3C[C@@H](O)CC(=O)O3)[C@H]21", "note": "[lovastatin]", "values": [{"measurement": "most frequently reported side effects", "setting": "[1]", "result": "Gastrointestinal disturbances, including flatulence, diarrhea, constipation and nausea"}]}, {"molecule": "CC[C@H](C)C(=O)O[C@H]1C[C@@H](C)C=C2C=C[C@H](C)[C@H](CC[C@@H]3C[C@@H](O)CC(=O)O3)[C@H]21", "note": "[mevinolin]", "values": [{"measurement": "HMGCoA reductase levels", "setting": "HMGCoA reductase", "result": "increased levels of HMGCoA reductase"}]}, {"molecule": "GM-CSF: colony-stimulating factor GM-CSF", "values": [{"measurement": "decrease in serum cholesterol levels", "setting": "[2]", "result": "profound decreases in serum cholesterol levels"}, {"measurement": "average decrease in serum cholesterol", "setting": "[2]; in vivo", "result": 37, "unit": "%"}]}, {"molecule": "Interferon-gamma: a proteinaceous positive regulator, interferon-gamma", "values": [{"measurement": "increase of luciferase expression from the M-CSF promoter", "setting": "M-CSF promoter", "result": 20, "unit": "fold"}, {"measurement": "effect on endogenous G-CSF mRNA (Northern blot)", "setting": "G-CSF mRNA", "result": "increased G-CSF mRNA production"}]}, {"molecule": "Interleukin-1 beta: Interleukin-1 beta, known transcriptional inducer", "values": [{"measurement": "G-CSF promoter induction", "setting": "G-CSF promoter [3]; G1002, 0.5 ng/ml, 10.5 hours, serum-containing media", "result": 2.6, "unit": "fold"}]}, {"molecule": "TNF-alpha", "values": [{"measurement": "GM-CSF promoter induction", "setting": "GM-CSF promoter; clone GM1088", "result": 2, "unit": "fold"}, {"measurement": "GM-CSF promoter induction", "setting": "GM-CSF promoter; clone GM1105", "result": 2, "unit": "fold"}, {"measurement": "G-CSF promoter induction", "setting": "G-CSF promoter [3]; G1002, 8.3 ng/ml, 10.5 hours, serum-containing media", "result": 2, "unit": "fold"}, {"measurement": "G-CSF promoter induction", "setting": "G-CSF promoter [3]; G1002, 7 hours, serum-free defined media with 20 ng/ml EGF", "result": 3, "unit": "fold"}, {"measurement": "G-CSF promoter induction", "setting": "G-CSF promoter [3]; G1002, 7 hours, serum-free, absence of EGF", "result": 4, "unit": "fold"}, {"measurement": "G-CSF promoter induction", "setting": "G-CSF promoter [4]; absence of EGF", "result": 2.1, "unit": "fold"}, {"measurement": "G-CSF promoter induction", "setting": "G-CSF promoter [4]; presence of EGF", "result": 2.8, "unit": "fold"}, {"measurement": "G-CSF secretion", "setting": "[5]", "result": "increased G-CSF secretion"}]}, {"molecule": "B1", "values": [{"measurement": "decrease in serum cholesterol levels", "setting": "[2]", "result": "profound decreases in serum cholesterol levels"}]}]}
